Assay results reported in patent US11214594B2, “Antimicrobial peptide having synergistic antibacterial effect with antibiotics on multidrug resistant bacteria, and use thereof” (priority 2016, dated 2022).
≈ marks a conversion by molar mass, not a printed value. Where a SMILES comes first, the peptide text is derived from it. [ ]: non-standard residue; d: D form.

What was measured:
E. coli [1] = experiment: microbe, parasite or virus in culture; assay type: cell-based, Escherichia coli; conditions: 16 h
In short: (§1)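 Broth microdilution in MH medium: strains diluted to 2×10^6 CFU were mixed with equal volumes of twofold serial peptide dilutions in MH medium. MIC was taken as the lowest peptide concentration preventing bacterial growth.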

MDREC 1229 = experiment: microbe, parasite or virus in culture; assay type: cell-based, Escherichia coli; conditions: MDREC 1229
In short: as §1

MDREC 1238 = assay type: cell-based, Escherichia coli; conditions: MDREC 1238; agent alone
In short: as §1

P. aeruginosa = experiment: microbe, parasite or virus in culture; assay type: cell-based, Pseudomonas aeruginosa
In short: as §1

MDRPA 2002 = assay type: cell-based, Pseudomonas aeruginosa; conditions: MDRPA 2002; agent alone
In short: as §1

MDRPA 2003 = assay type: cell-based, Pseudomonas aeruginosa; conditions: MDRPA 2003; agent alone
In short: as §1

MDRAB 12036 = assay type: cell-based, Acinetobacter baumannii; conditions: MDRAB 12036; agent alone
In short: as §1

MDRST 8007 = experiment: Minimal inhibitory concentration (MIC), single agent; assay type: cell-based, Salmonella typhimurium; conditions: agent alone
In short: as §1

MDRST 8009 = assay type: cell-based, Salmonella typhimurium; conditions: agent alone
In short: as §1

B. subtilis = experiment: microbe, parasite or virus in culture; assay type: cell-based, Bacillus subtilis
In short: as §1

S. epidermidis = experiment: microbe, parasite or virus in culture; assay type: cell-based, Staphylococcus epidermidis
In short: as §1

MRSA 3114 = assay type: cell-based, Staphylococcus aureus; conditions: MRSA 3114; agent alone
In short: as §1

MRSA 3126 = assay type: cell-based, Staphylococcus aureus; conditions: MRSA 3126; agent alone
In short: as §1

E. coli [2] = experiment: MIC of antibiotic during combined treatment with antimicrobial peptide; assay type: cell-based, Escherichia coli; conditions: for Antibiotic MIC, Erythromycin / Antibiotic MIC, Linezolid / Antibiotic MIC, Vancomycin: E. coli
In short: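 Using MH broth, we determined combination MICs by titrating the antibiotic into wells and then repeating under the reverse dilution scheme.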

MDRAB 12035 = experiment: as above; assay type: cell-based, Acinetobacter baumannii
In short: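 Broth microdilution in MH medium; strains were diluted to 2×10^6 CFU per ml before plating. Peptide was serially diluted stepwise at 2:1 starting from its MIC, and MH-diluted antibiotic was then added to determine MIC. The reversed arrangement was also tested.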

[3] = peptide treatment concentration 1 μg/ml
[4] = peptide treatment concentration 2 μg/ml
[5] = peptide treatment concentration 4 μg/ml
[6] = peptide treatment concentration 6 μg/ml
[7] = peptide treatment concentration 8 μg/ml

## CC[C@H](C)[C@H](NC(=O)[C@H](CCCCN)NC(=O)[C@H](Cc1c[nH]c2ccccc12)NC(=O)[C@@H](N)CCCNC(=N)N)C(=O)N[C@@H](Cc1ccccc1)C(=O)N[C@@H](CCCCN)C(=O)N[C@@H](CCCCN)C(=O)N[C@H](C(=O)N[C@H](CC(C)C)C(=O)N[C@@H](CCCCN)C(=O)N[C@@H](CC(C)C)C(=O)N[C@@H](CC(C)C)C(=O)N[C@@H](Cc1c[nH]cn1)C(=O)N[C@@H](CCCCN)C(=O)N[C@@H](Cc1ccccc1)C(=O)N[C@@H](CCCCN)C(=O)N[C@@H](CCCCN)C(=O)N[C@@H](Cc1ccccc1)C(N)=O)[C@@H](C)CC [PapMA-21, RWK IFK KIl KLL HKF KKF-NH2] (H-RWKIFKKI[dL]KLLHKFKKF-NH2; N-terminus assumed)
E. coli [1]
  Minimal inhibitory concentration MIC: 32 µg/mL (≈ 13.3 µM)
MDREC 1229; agent alone
  Minimal inhibitory concentration MIC: 32 µg/mL (≈ 13.3 µM)
MDREC 1229; peptide alone, no antibiotic
  Peptide MIC, peptide alone: 32 µg/mL
MDREC 1238
  Minimal inhibitory concentration MIC: 32 µg/mL (≈ 13.3 µM)
P. aeruginosa
  Minimal inhibitory concentration MIC: 32 µg/mL (≈ 13.3 µM)
MDRPA 2002
  Minimal inhibitory concentration MIC: 32 µg/mL (≈ 13.3 µM)
MDRPA 2003
  Minimal inhibitory concentration MIC: 32 µg/mL (≈ 13.3 µM)
MDRAB 12036
  Minimal inhibitory concentration MIC: 32 µg/mL (≈ 13.3 µM)
MDRST 8007
  Minimal inhibitory concentration MIC: 64 µg/mL (≈ 26.7 µM)
MDRST 8009
  Minimal inhibitory concentration MIC: 32 µg/mL (≈ 13.3 µM)
B. subtilis
  Minimal inhibitory concentration MIC: >128 µg/mL
S. epidermidis
  Minimal inhibitory concentration MIC: >128 µg/mL
MRSA 3114
  Minimal inhibitory concentration MIC: >128 µg/mL
MRSA 3126
  Minimal inhibitory concentration MIC: >128 µg/mL
E. coli [2]; E. coli and MDREC1229
  Synergistic effect of antibacterial activity with existing antibiotics compared with PapMA-1: level similar to that of the PapMA-1 peptide
E. coli [2]; erythromycin combined with peptide at 1 μg/ml
  Antibiotic MIC, Erythromycin: 64 µg/mL
E. coli [2]; erythromycin combined with peptide at 2 μg/ml
  Antibiotic MIC, Erythromycin: 32 µg/mL
E. coli [2]; erythromycin combined with peptide at 4 μg/ml
  Antibiotic MIC, Erythromycin: 8 µg/mL
E. coli [2]; erythromycin combined with peptide at 6 μg/ml
  Antibiotic MIC, Erythromycin: 2 µg/mL
E. coli [2]; erythromycin combined with peptide at 8 μg/ml
  Antibiotic MIC, Erythromycin: 1 µg/mL
E. coli [2]; erythromycin combined with peptide at 16 μg/ml
  Antibiotic MIC, Erythromycin: 0.25 µg/mL
E. coli [2]; erythromycin combined with peptide at 32 μg/ml
  Antibiotic MIC, Erythromycin: 0 µg/mL
E. coli [2]; erythromycin combined with peptide at 64 μg/ml
  Antibiotic MIC, Erythromycin: 0 µg/mL
E. coli [2]; linezolid combined with peptide at 1 μg/ml
  Antibiotic MIC, Linezolid: >128 µg/mL
E. coli [2]; linezolid combined with peptide at 2 μg/ml
  Antibiotic MIC, Linezolid: 128 µg/mL
E. coli [2]; linezolid combined with peptide at 4 μg/ml
  Antibiotic MIC, Linezolid: 64 µg/mL
E. coli [2]; linezolid combined with peptide at 6 μg/ml
  Antibiotic MIC, Linezolid: 32 µg/mL
E. coli [2]; linezolid combined with peptide at 8 μg/ml
  Antibiotic MIC, Linezolid: 16 µg/mL
E. coli [2]; linezolid combined with peptide at 16 μg/ml
  Antibiotic MIC, Linezolid: 8 µg/mL
E. coli [2]; linezolid combined with peptide at 32 μg/ml
  Antibiotic MIC, Linezolid: 0 µg/mL
E. coli [2]; linezolid combined with peptide at 64 μg/ml
  Antibiotic MIC, Linezolid: 0 µg/mL
E. coli [2]; vancomycin combined with peptide at 1 μg/ml
  Antibiotic MIC, Vancomycin: >128 µg/mL
E. coli [2]; vancomycin combined with peptide at 2 μg/ml
  Antibiotic MIC, Vancomycin: >128 µg/mL
E. coli [2]; vancomycin combined with peptide at 4 μg/ml
  Antibiotic MIC, Vancomycin: >128 µg/mL
E. coli [2]; vancomycin combined with peptide at 6 μg/ml
  Antibiotic MIC, Vancomycin: 64 µg/mL
E. coli [2]; vancomycin combined with peptide at 8 μg/ml
  Antibiotic MIC, Vancomycin: 32 µg/mL
E. coli [2]; vancomycin combined with peptide at 16 μg/ml
  Antibiotic MIC, Vancomycin: 8 µg/mL
E. coli [2]; vancomycin combined with peptide at 32 μg/ml
  Antibiotic MIC, Vancomycin: 0 µg/mL
E. coli [2]; vancomycin combined with peptide at 64 μg/ml
  Antibiotic MIC, Vancomycin: 0 µg/mL
MDRAB 12035; [3]
  Erythromycin MIC during combined treatment with peptide: 32 µg/mL
  Linezolid MIC during combined treatment with peptide: >128 µg/mL
  Vancomycin MIC during combined treatment with peptide: >128 µg/mL
MDRAB 12035; [4]
  Erythromycin MIC during combined treatment with peptide: 32 µg/mL
  Linezolid MIC during combined treatment with peptide: >128 µg/mL
  Vancomycin MIC during combined treatment with peptide: >128 µg/mL
MDRAB 12035; [5]
  Erythromycin MIC during combined treatment with peptide: 16 µg/mL
  Linezolid MIC during combined treatment with peptide: 64 µg/mL
  Vancomycin MIC during combined treatment with peptide: 128 µg/mL
MDRAB 12035; [6]
  Erythromycin MIC during combined treatment with peptide: 4 µg/mL
  Linezolid MIC during combined treatment with peptide: 32 µg/mL
  Vancomycin MIC during combined treatment with peptide: 64 µg/mL
MDRAB 12035; [7]
  Erythromycin MIC during combined treatment with peptide: 1 µg/mL
  Linezolid MIC during combined treatment with peptide: 16 µg/mL
  Vancomycin MIC during combined treatment with peptide: 32 µg/mL
MDRAB 12035; peptide treatment concentration 16 μg/ml
  Erythromycin MIC during combined treatment with peptide: 0.5 µg/mL
